From US20230085307A1, “PYRIDAZINONE COMPOUND AND HERBICIDE” (NISSAN CHEMICAL CORPORATION, priority 2019, published 2023)

How the values were obtained:
southern crabgrass [1] = assay: Test Example 4: herbicidal effect by soil treatment (Table 19, symbol F); type: in vivo, southern crabgrass (Digitaria ciliaris)
Procedure, shortened: (§1)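 Applied as a water-diluted emulsion, the compound was sprayed onto soil covering newly sown seeds. Evaluation came three weeks after application, in a greenhouse held at 25° C. to 30° C.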

redroot pigweed [2] = assay: Test Example 4: herbicidal effect by soil treatment (Table 19, symbol N); type: in vivo, redroot pigweed (Amaranthus retroflexus)
Procedure, shortened: as §1

green foxtail = assay: Test Example 5: herbicidal effect by foliage application, plastic box (Table 20, symbol G); type: in vivo, green foxtail (Setaria viridis); settings: foliage application, three weeks after application
Procedure, shortened: (§2)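 Sow seeds spot-wise in sterilized diluvial soil; cover with ~1.5 cm soil. Grow 14 days in greenhouse, 25° C. to 30° C. Spray foliage with emulsion diluted to predetermined amount. Rate effect after 3 weeks.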

wild oat = assay: Test Example 4: herbicidal effect by soil treatment (Table 19, symbol I); type: in vivo, wild oat (Avena fatua)
Procedure, shortened: as §1

southern crabgrass [3] = assay: Test Example 5: herbicidal effect by foliage application, plastic box (Table 20, symbol F); type: in vivo, southern crabgrass (Digitaria ciliaris); settings: foliage application, three weeks after application
Procedure, shortened: as §2

oval-leafed pondweed [4] = assay: Test Example 2: herbicidal activity, application during weed generation under submerged conditions (Table 17, symbol C); type: in vivo, oval-leafed pondweed (Monochoria vaginalis); settings: application during weed generation, submerged conditions
Procedure, shortened: (§3)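 Steps: fill Wagner pots with alluvial soil; add water to give 4 cm depth; sow the species mixed; grow under glass at 25–30° C.; at 1–2 leaves apply water-diluted emulsion formulation to the water surface at a fixed herbicide amount; score after 3 weeks.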

Japanese bulrush = assay: Test Example 1: herbicidal activity, application before weed generation under submerged conditions (Table 16, symbol B); type: in vivo, Japanese bulrush (Schoenoplectus juncoides)
Procedure, shortened: (§4)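 Emulsion formulation, water-diluted to set dose, was put onto the flooded surface (4 cm depth, alluvial soil) the same day weeds were sown and 2.5-leaf rice transplanted. After 3 weeks at 25-30 °C under glass, each species was rated 0 (≤5% kill) to 5 (≥90% kill).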

barnyard grass = assay: Test Example 3: herbicidal effect by foliage application, Wagner pot (Table 18, symbol H); type: in vivo, barnyard grass (Echinochloa crus-galli)
Procedure, shortened: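 Plants were sown in alluvial soil held under 0.1–0.5 cm standing water and grown 14 days in a greenhouse at 25–30 °C. An emulsifiable formulation, water-diluted to the set dose, was then sprayed onto the foliage, and effects were scored three weeks later using previously defined criteria.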

chickweed = assay: Test Example 4: herbicidal effect by soil treatment (Table 19, symbol P); type: in vivo, common chickweed (Stellaria media)
Procedure, shortened: as §1

windgrass = assay: Test Example 4: herbicidal effect by soil treatment (Table 19, symbol L); type: in vivo, windgrass (Apera spica-venti)
Procedure, shortened: as §1

late watergrass [5] = assay: Test Example 1: herbicidal activity, application before weed generation under submerged conditions (Table 16, symbol A); type: in vivo, late watergrass (Echinochloa oryzicola)
Procedure, shortened: as §4

redroot pigweed [6] = assay: Test Example 5: herbicidal effect by foliage application, plastic box (Table 20, symbol N); type: in vivo, redroot pigweed (Amaranthus retroflexus); settings: foliage application, 320 g/ha, three weeks after application
Procedure, shortened: as §2

velvetleaf = assay: Test Example 4: herbicidal effect by soil treatment (Table 19, symbol M); type: in vivo, velvetleaf (Abutilon theophrasti)
Procedure, shortened: as §1

late watergrass [7] = assay: Test Example 2: herbicidal activity, application during weed generation under submerged conditions (Table 17, symbol A); type: in vivo, late watergrass (Echinochloa oryzicola); settings: application during weed generation, submerged conditions
Procedure, shortened: as §3

persian speedwell = assay: Test Example 4: herbicidal effect by soil treatment (Table 19, symbol R); type: in vivo, Persian speedwell (Veronica persica)
Procedure, shortened: as §1

oval-leafed pondweed [8] = assay: Test Example 1: herbicidal activity, application before weed generation under submerged conditions (Table 16, symbol C); type: in vivo, oval-leafed pondweed (Monochoria vaginalis)
Procedure, shortened: as §4

[9] = amount of applied herbicide 320 g/ha
[10] = amount of applied herbicide 390 g/ha

COc1ccccc1-c1sc2cc(F)ccc2c1-c1c(OC(=O)c2ccco2)c(C)nn(C)c1=O [3-023] was tested, and the “herbicidal effect, F: southern crabgrass” value (southern crabgrass [1]; [9]) was 3 (Herbicidal rate of 40% or more and less than 70%), the “herbicidal effect, N: redroot pigweed” value (redroot pigweed [2]; [9]) was 5 (Herbicidal rate of 90% or more (almost completely withered)) and the “G: green foxtail, herbicidal effect grade” value (green foxtail; 320 g/ha) was 5 (Herbicidal rate of 90% or more (almost completely withered)). The “herbicidal effect, I: wild oat” value (wild oat; [9]) was 0 (Herbicidal rate of 5% or less (almost no effect)), the “F: southern crabgrass, herbicidal effect grade” value (southern crabgrass [3]; 320 g/ha) was 3 (Herbicidal rate of 40% or more and less than 70%) and the “herbicidal effect rating, C: oval-leafed pondweed” value (“herbicidal effect rating, C” below) (oval-leafed pondweed [4]; AAH 320 g/ha) was 4 (Herbicidal rate of 70% or more and less than 90%). The “Herbicidal effect, B: Japanese bulrush” value (Japanese bulrush; [9]) was 3 (Herbicidal rate of 40% or more and less than 70%), the “herbicidal effect on H: barnyard grass” value (barnyard grass; [9]) was 5 (Herbicidal rate of 90% or more (almost completely withered)) and the “herbicidal effect, P: chickweed” value (chickweed; [9]) was 4 (Herbicidal rate of 70% or more and less than 90%). The “herbicidal effect, L: windgrass” value (windgrass; [9]) was 3 (Herbicidal rate of 40% or more and less than 70%), the “Herbicidal effect, A: late watergrass” value (late watergrass [5]; [9]) was 3 (Herbicidal rate of 40% or more and less than 70%) and the “N: redroot pigweed, herbicidal effect grade” value (redroot pigweed [6]) was 5 (Herbicidal rate of 90% or more (almost completely withered)). The “herbicidal effect, M: velvetleaf” value (velvetleaf; [9]) was 0 (Herbicidal rate of 5% or less (almost no effect)), the “herbicidal effect rating, A: late watergrass” value (late watergrass [7]; AAH 320 g/ha) was 2 (Herbicidal rate of 20% or more and less than 40%) and the “herbicidal effect, R: persian speedwell” value (persian speedwell; [9]) was 4 (Herbicidal rate of 70% or more and less than 90%). For the same molecule, the “Herbicidal effect, C: oval-leafed pondweed” value (“Herbicidal effect, C” for short) (oval-leafed pondweed [8]; [9]) was 4 (Herbicidal rate of 70% or more and less than 90%).
CCCC(=O)Oc1c(C)nn(C)c(=O)c1-c1c(-c2ccc(F)cc2)oc2ccc(C)cc12 [9-005] was tested, and the “F: southern crabgrass, herbicidal effect grade” value (southern crabgrass [1]; [10]) was 0 (Herbicidal rate of 5% or less (almost no effect)), the “N: redroot pigweed, herbicidal effect grade” value (redroot pigweed [2]; [10]) was 3 (Herbicidal rate of 40% or more and less than 70%) and the “herbicidal effect on green foxtail (G)” value (green foxtail; 390 g/ha) was 0 (Herbicidal rate of 5% or less (almost no effect)). The “I: wild oat, herbicidal effect grade” value (wild oat; [10]) was 0 (Herbicidal rate of 5% or less (almost no effect)), the “herbicidal effect on southern crabgrass (F)” value (shortened to “herbicidal effect … (F)”) (southern crabgrass [3]; 390 g/ha) was 0 (Herbicidal rate of 5% or less (almost no effect)) and the “herbicidal effect rating, C” value (oval-leafed pondweed [4]; AAH 390 g/ha) was 3 (Herbicidal rate of 40% or more and less than 70%). The “Herbicidal effect, B: Japanese bulrush” value (Japanese bulrush; [10]) was 4 (Herbicidal rate of 70% or more and less than 90%), the “Herbicidal effect on H (barnyard grass), foliage application” value (“Herbicidal effect on H (barnyard grass)” below) (barnyard grass; [10]) was 3 (Herbicidal rate of 40% or more and less than 70%) and the “P: chickweed, herbicidal effect grade” value (chickweed; [10]) was 5 (Herbicidal rate of 90% or more (almost completely withered)). The “L: windgrass, herbicidal effect grade” value (windgrass; [10]) was 0 (Herbicidal rate of 5% or less (almost no effect)), the “Herbicidal effect, A: late watergrass” value (late watergrass [5]; [10]) was 5 (Herbicidal rate of 90% or more (almost completely withered)) and the “M: velvetleaf, herbicidal effect grade” value (velvetleaf; [10]) was 0 (Herbicidal rate of 5% or less (almost no effect)). The “herbicidal effect rating, A: late watergrass” value (late watergrass [7]; AAH 390 g/ha) was 0 (Herbicidal rate of 5% or less (almost no effect)), the “R: persian speedwell, herbicidal effect grade” value (persian speedwell; [10]) was 3 (Herbicidal rate of 40% or more and less than 70%) and the “Herbicidal effect, C” value (oval-leafed pondweed [8]; [10]) was 3 (Herbicidal rate of 40% or more and less than 70%).
With COc1ccc(-c2oc3ccc(C)cc3c2-c2c(O)c(C)nn(C)c2=O)cc1 [9-007] the “F: southern crabgrass, herbicidal effect grade” value (southern crabgrass [1]; [9]) was 5 (Herbicidal rate of 90% or more (almost completely withered)), the “N: redroot pigweed, herbicidal effect grade” value (redroot pigweed [2]; [9]) was 5 (Herbicidal rate of 90% or more (almost completely withered)) and the “herbicidal effect on green foxtail (G)” value (green foxtail; 320 g/ha) was 4 (Herbicidal rate of 70% or more and less than 90%). The “I: wild oat, herbicidal effect grade” value (wild oat; [9]) was 1 (Herbicidal rate of 5% or more and less than 20%), the “herbicidal effect … (F)” value (southern crabgrass [3]; 320 g/ha) was 5 (Herbicidal rate of 90% or more (almost completely withered)) and the “herbicidal effect rating, C” value (oval-leafed pondweed [4]; AAH 320 g/ha) was 5 (Herbicidal rate of 90% or more (almost completely withered)). For the same molecule, the “Herbicidal effect, B: Japanese bulrush” value (Japanese bulrush; [9]) was 5 (Herbicidal rate of 90% or more (almost completely withered)), the “Herbicidal effect on H (barnyard grass)” value (barnyard grass; [9]) was 4 (Herbicidal rate of 70% or more and less than 90%) and the “P: chickweed, herbicidal effect grade” value (chickweed; [9]) was 4 (Herbicidal rate of 70% or more and less than 90%). The “L: windgrass, herbicidal effect grade” value (windgrass; [9]) was 0 (Herbicidal rate of 5% or less (almost no effect)), the “Herbicidal effect, A: late watergrass” value (late watergrass [5]; [9]) was 5 (Herbicidal rate of 90% or more (almost completely withered)) and the “M: velvetleaf, herbicidal effect grade” value (velvetleaf; [9]) was 3 (Herbicidal rate of 40% or more and less than 70%). The “herbicidal effect rating, A: late watergrass” value (late watergrass [7]; AAH 320 g/ha) was 4 (Herbicidal rate of 70% or more and less than 90%), the “R: persian speedwell, herbicidal effect grade” value (persian speedwell; [9]) was 5 (Herbicidal rate of 90% or more (almost completely withered)) and the “Herbicidal effect, C” value (oval-leafed pondweed [8]; [9]) was 5 (Herbicidal rate of 90% or more (almost completely withered)).
For CCCC(=O)Oc1c(C)nn(C)c(=O)c1-c1c(-c2ccc(OC)cc2)oc2ccc(C)cc12 [9-008], the “F: southern crabgrass, herbicidal effect grade” value (southern crabgrass [1]; [9]) was 3 (Herbicidal rate of 40% or more and less than 70%), the “N: redroot pigweed, herbicidal effect grade” value (redroot pigweed [2]; [9]) was 5 (Herbicidal rate of 90% or more (almost completely withered)) and the “herbicidal effect on green foxtail (G)” value (green foxtail; 320 g/ha) was 3 (Herbicidal rate of 40% or more and less than 70%). For the same molecule, the “I: wild oat, herbicidal effect grade” value (wild oat; [9]) was 0 (Herbicidal rate of 5% or less (almost no effect)), the “herbicidal effect … (F)” value (southern crabgrass [3]; 320 g/ha) was 3 (Herbicidal rate of 40% or more and less than 70%) and the “herbicidal effect rating, C” value (oval-leafed pondweed [4]; AAH 320 g/ha) was 5 (Herbicidal rate of 90% or more (almost completely withered)). The “Herbicidal effect, B: Japanese bulrush” value (Japanese bulrush; [9]) was 5 (Herbicidal rate of 90% or more (almost completely withered)), the “Herbicidal effect on H (barnyard grass)” value (barnyard grass; [9]) was 2 (Herbicidal rate of 20% or more and less than 40%) and the “P: chickweed, herbicidal effect grade” value (chickweed; [9]) was 0 (Herbicidal rate of 5% or less (almost no effect)). For the same molecule, the “L: windgrass, herbicidal effect grade” value (windgrass; [9]) was 0 (Herbicidal rate of 5% or less (almost no effect)), the “Herbicidal effect, A: late watergrass” value (late watergrass [5]; [9]) was 5 (Herbicidal rate of 90% or more (almost completely withered)) and the “M: velvetleaf, herbicidal effect grade” value (velvetleaf; [9]) was 0 (Herbicidal rate of 5% or less (almost no effect)). For the same molecule, the “herbicidal effect rating, A: late watergrass” value (late watergrass [7]; AAH 320 g/ha) was 1 (Herbicidal rate of 5% or more and less than 20%), the “R: persian speedwell, herbicidal effect grade” value (persian speedwell; [9]) was 4 (Herbicidal rate of 70% or more and less than 90%) and the “Herbicidal effect, C” value (oval-leafed pondweed [8]; [9]) was 5 (Herbicidal rate of 90% or more (almost completely withered)).
COc1ccccc1-c1sc2c(Cl)c(OC)ccc2c1-c1c(O)c(C)nn(C)c1=O [Compound No. 7-001, 4-(7-chloro-6-methoxy-2-(2-methoxyphenyl)benzo[b]thiophen-3-yl)-5-hydroxy-2,6-dimeth ylpyridazin-3-(2H)-one] was tested, and the “F: southern crabgrass, herbicidal effect grade” value (southern crabgrass [1]; [9]) was 0 (Herbicidal rate of 5% or less (almost no effect)), the “N: redroot pigweed, herbicidal effect grade” value (redroot pigweed [2]; [9]) was 5 (Herbicidal rate of 90% or more (almost completely withered)) and the “herbicidal effect on green foxtail (G)” value (green foxtail; 320 g/ha) was 4 (Herbicidal rate of 70% or more and less than 90%). For the same molecule, the “I: wild oat, herbicidal effect grade” value (wild oat; [9]) was 0 (Herbicidal rate of 5% or less (almost no effect)), the “herbicidal effect … (F)” value (southern crabgrass [3]; 320 g/ha) was 0 (Herbicidal rate of 5% or less (almost no effect)) and the “herbicidal effect rating, C” value (oval-leafed pondweed [4]; AAH 320 g/ha) was 3 (Herbicidal rate of 40% or more and less than 70%). The “Herbicidal effect, B: Japanese bulrush” value (Japanese bulrush; [9]) was 3 (Herbicidal rate of 40% or more and less than 70%), the “Herbicidal effect on H (barnyard grass)” value (barnyard grass; [9]) was 5 (Herbicidal rate of 90% or more (almost completely withered)) and the “P: chickweed, herbicidal effect grade” value (chickweed; [9]) was 5 (Herbicidal rate of 90% or more (almost completely withered)). The “L: windgrass, herbicidal effect grade” value (windgrass; [9]) was 0 (Herbicidal rate of 5% or less (almost no effect)), the “Herbicidal effect, A: late watergrass” value (late watergrass [5]; [9]) was 3 (Herbicidal rate of 40% or more and less than 70%) and the “M: velvetleaf, herbicidal effect grade” value (velvetleaf; [9]) was 3 (Herbicidal rate of 40% or more and less than 70%). For the same molecule, the “herbicidal effect rating, A: late watergrass” value (late watergrass [7]; AAH 320 g/ha) was 3 (Herbicidal rate of 40% or more and less than 70%), the “R: persian speedwell, herbicidal effect grade” value (persian speedwell; [9]) was 5 (Herbicidal rate of 90% or more (almost completely withered)) and the “Herbicidal effect, C” value (oval-leafed pondweed [8]; [9]) was 2 (Herbicidal rate of 20% or more and less than 40%).
